{"source": "patent US10273208B2", "about": "“Screening methods for the binding affinity of chemical entities to biological molecules and NEDD4-1 inhibitors identified by the screening methods” (Northwestern University, priority 2014, dated 2019)"}
{"assay": "NMR rate studies: pseudo-first order reaction with N-acetylcysteine methyl ester", "type": "physicochemical", "conditions": "electrophile 10 mM, N-acetyl cysteine methyl ester 78 mM, 2:1 deuterated PBS:DMSO-d6, pD 8, NMR", "from_the_text": "We further validated the utility of electrophile 3 as a thiol-reactive tether by making a library of one hundred structurally diverse drug-like fragments 6-105 containing this electrophile. The library was constructed with an HBTU amide coupling with commercially available carboxylic acid fragments (FIG. 2A). The acids were selected with “rule of three” criteria^15 and a subsequent diversity analysis. We measured the reaction rates for the first fifty fragments to confirm that this library would have balanced cysteine reactivity and could be used for irreversible tethering (FIG. 2B).\nN-Acetyl cysteine methyl ester was dissolved in 2:1 deuterated PBS:DMSO-d6 (78 mM) with 10 mM CH2Cl2 as an internal standard. The electrophile (10 mM) was then added immediately prior to acquiring spectra. H1 spectra were taken every 30 s for 30 min (or every 4 s for 5 min for highly reactive compounds 1c and 2a-c). The integrals of the vinyl peaks were used to determine the concentration of the electrophile over time. The natural logarithm of the concentration of the electrophile versus time was then plotted using GraphPad Prism software. The linear slope of this plot was used to determine the pseudofirst order rate constant. Deuterated PBS recipe: 20 mM Na3PO4, 50 mM NaCl in D2O was adjusted to pD 8 with DC1 solution.", "units": {"k pseudo-first order": "s⁻¹"}}
{"smiles": "COC(=O)/C=C/CNC(=O)c1c(C)[nH]c2ccc(OC)cc12", "note": "[Compound 12, Methyl(E)-4-(5-methoxy-2-methyl-1H-indole-3-carboxamido)but-2-enoate]", "k pseudo-first order": 0.000654}
{"smiles": "COC(=O)/C=C/CNC(=O)c1c[nH]c2ccc(OC)cc12", "note": "[Compound 13, Methyl(E)-4-(5-methoxy-1H-indole-3-carboxamido)but-2-enoate]", "k pseudo-first order": 0.0003582}
{"smiles": "CCn1c(C)c(C(=O)NC/C=C/C(=O)OC)c2cc(OC)ccc21", "note": "[Compound 14, Methyl(E)-4-(1-ethyl-5-methoxy-2-methyl-1H-indole-3-carboxamido)but-2-enoate]", "k pseudo-first order": 0.0005016}
{"smiles": "COC(=O)/C=C/CNC(=O)C1CC(=O)N(C)c2ccccc21", "note": "(centres unmarked) [Compound 15]", "k pseudo-first order": 0.0007733}
{"smiles": "COC(=O)/C=C/CNC(=O)C1Cc2ccccc2CN1C", "note": "(centres unmarked) [Compound 16]", "k pseudo-first order": 0.0006414}
{"smiles": "COC(=O)/C=C/CNC(=O)c1sc(C(C)C)nc1C", "note": "[Compound 17]", "k pseudo-first order": 0.0006156}
{"smiles": "CCC(C(=O)NC/C=C/C(=O)OC)N1Cc2ccccc2C1=O", "note": "(centres unmarked) [Compound 18]", "k pseudo-first order": 0.0006093}
{"smiles": "COC(=O)/C=C/CNC(=O)CN(C)C1CCCC1", "note": "[Compound 20]", "k pseudo-first order": 0.0005603}
{"smiles": "COC(=O)/C=C/CNC(=O)Cn1ncc2ccccc21", "note": "[Compound 21]", "k pseudo-first order": 0.0003327}
{"smiles": "COC(=O)/C=C/CNC(=O)c1ccc(-c2ccc(C)o2)cc1", "note": "[Compound 23]", "k pseudo-first order": 0.0004979}
{"smiles": "COC(=O)/C=C/CNC(=O)c1cnn(-c2ccccc2OC)c1", "note": "[Compound 24]", "k pseudo-first order": 0.0005202}
{"smiles": "COC(=O)/C=C/CNC(=O)Cc1ccncc1", "note": "[Compound 25]", "k pseudo-first order": 0.0005202}
{"smiles": "COC(=O)/C=C/CNC(=O)C1COc2c(cccc2OC)C1", "note": "(centres unmarked) [Compound 26]", "k pseudo-first order": 0.0006107}
{"smiles": "COC(=O)/C=C/CNC(=O)c1cc(C)nc2ccc(C)cc12", "note": "[Compound 27]", "k pseudo-first order": 0.0006665}
{"smiles": "COC(=O)/C=C/CNC(=O)c1ccc(OC)cc1", "note": "[Compound 28]", "k pseudo-first order": 0.00042}
{"smiles": "COC(=O)/C=C/CNC(=O)c1ccnc(C)c1", "note": "[Compound 29]", "k pseudo-first order": 0.0004038}
{"smiles": "COC(=O)/C=C/CNC(=O)c1ccc(CN2CCc3ccccc3C2)cc1", "note": "[Compound 30]", "k pseudo-first order": 0.0006579}
{"smiles": "COC(=O)/C=C/CNC(=O)[C@@H]1CCCN1C(=O)C1CC1", "note": "[Compound 31]", "k pseudo-first order": 0.0005193}
{"smiles": "COC(=O)/C=C/CNC(=O)c1cccc(Cl)n1", "note": "[Compound 33]", "k pseudo-first order": 0.0006348}
{"smiles": "COC(=O)/C=C/CNC(=O)c1ccccc1Br", "note": "[Compound 34]", "k pseudo-first order": 0.0007717}
{"smiles": "COC(=O)/C=C/CNC(=O)c1cc(Br)ccc1N", "note": "[Compound 35]", "k pseudo-first order": 0.0005755}
{"smiles": "COC(=O)/C=C/CNC(=O)C(CO)c1ccccc1", "note": "(centres unmarked) [Compound 36]", "k pseudo-first order": 0.00034}
{"smiles": "COC(=O)/C=C/CNC(=O)Cn1nc(C)cc1C", "note": "[Compound 37]", "k pseudo-first order": 0.0004493}
{"smiles": "COC(=O)/C=C/CNC(=O)c1cc(Br)ccc1OC", "note": "[Compound 38]", "k pseudo-first order": 0.0007728}
{"smiles": "CCC(C(=O)NC/C=C/C(=O)OC)n1cccn1", "note": "(centres unmarked) [Compound 39]", "k pseudo-first order": 0.000651}
{"smiles": "C=CCN1CC(C(=O)NC/C=C/C(=O)OC)CC1=O", "note": "(centres unmarked) [Compound 40]", "k pseudo-first order": 0.0004793}
{"smiles": "COC(=O)/C=C/CNC(=O)c1c(C)[nH]c2c1C(=O)CCC2", "note": "[Compound 41]", "k pseudo-first order": 0.0005635}
{"smiles": "COC(=O)/C=C/CNC(=O)Cc1c(C)nn(-c2ccccc2)c1C", "note": "[Compound 42]", "k pseudo-first order": 0.0005281}
{"smiles": "COC(=O)/C=C/CNC(=O)c1c(C)n(C)c2ccc(OC)cc12", "note": "[Compound 43]", "k pseudo-first order": 0.0007616}
{"smiles": "COC(=O)/C=C/CNC(=O)c1cc2c([nH]c1=O)CCCC2", "note": "[Compound 44]", "k pseudo-first order": 0.0006746}
{"smiles": "COC(=O)/C=C/CNC(=O)c1c(C)nc2cc(C)ccn12", "note": "[Compound 45]", "k pseudo-first order": 0.0003961}
{"smiles": "CCn1nc(C(C)C)cc1C(=O)NC/C=C/C(=O)OC", "note": "[Compound 46]", "k pseudo-first order": 0.0007806}
{"smiles": "COC(=O)/C=C/CNC(=O)c1c[nH]nc1-c1cccc(F)c1", "note": "[Compound 47]", "k pseudo-first order": 0.0006539}
{"smiles": "COC(=O)/C=C/CNC(=O)C(C)n1cnc2ccccc21", "note": "(centres unmarked) [Compound 48]", "k pseudo-first order": 0.000468}
{"smiles": "COC(=O)/C=C/CNC(=O)c1cnn(Cc2ccccc2)c1", "note": "[Compound 49]", "k pseudo-first order": 0.0004975}
{"smiles": "COC(=O)/C=C/CNC(=O)c1n[nH]cc1Br", "note": "[Compound 50]", "k pseudo-first order": 0.0006514}
{"smiles": "COC(=O)/C=C/CNC(=O)c1ccccc1N(C)C(=O)c1ccco1", "note": "[Compound 51]", "k pseudo-first order": 0.0005048}
{"smiles": "COC(=O)/C=C/CNC(=O)c1cc(C2CC2)nc2ccccc12", "note": "[Compound 52]", "k pseudo-first order": 0.0005984}
{"smiles": "COC(=O)/C=C/CNC(=O)c1ccc(Cl)cn1", "note": "[Compound 53]", "k pseudo-first order": 0.0005521}
{"smiles": "COC(=O)/C=C/CNC(=O)CNC(=O)c1ccccc1Br", "note": "[Compound 54]", "k pseudo-first order": 0.0005048}
{"smiles": "COC(=O)/C=C/CNC(=O)Cn1c(=O)cc(C)c2ccccc21", "note": "[Compound 55]", "k pseudo-first order": 0.000452}
